What follows are compounds tested against Substance-P receptor (Bos taurus) (assay: inhibition of [3H]Sar-SP binding to Tachykinin receptor 1 of bovine retina membranes).

Row | Structure (SMILES) | IC50 [nM]
1 | CN(C)CCCNC(=O)c1ccc(-c2ccc(Cl)cc2)c(N(C)C(=O)c2cc(C(F)(F)F)cc(C(F)(F)F)c2)c1 [2-[(3,5-Bis-trifluoromethyl-benzoyl)-methyl-amino]-4'-chloro-biphenyl-4-carboxylic acid (3-dimethylamino-propyl)-amide] | 1
2 | COc1cc(C(=O)N(C)c2cc(C(=O)N[C@@H]3CCCCNC3=O)ccc2-c2ccc(Cl)cc2)cc(OC)c1OC | 13
3 | CN(C(=O)c1cc(C(F)(F)F)cc(C(F)(F)F)c1)c1cc(C(=O)N[C@@H]2CCCCNC2=O)ccc1-c1ccc(Cl)cc1 | 2.7
4 | CN(C(=O)c1cc(C(F)(F)F)cc(C(F)(F)F)c1)c1cc(C(=O)N[C@@H]2CCCCNC2=O)ccc1-c1ccc(F)cc1 | 1
5 | COc1cc(C(=O)Nc2cc(C(=O)NC3CCCCNC3=O)ccc2-c2ccc(Cl)cc2)cc(OC)c1OC (centres undefined) [4'-Chloro-2-(3,4,5-trimethoxy-benzoylamino)-biphenyl-4-carboxylic acid (2-oxo-azepan-3-yl)-amide] | 0.7
6 | Cc1ccc(-c2ccc(C(=O)N[C@@H]3CCCCNC3=O)cc2N(C)C(=O)c2cc(C(F)(F)F)cc(C(F)(F)F)c2)cc1 | 6
7 | CN(C(=O)c1cc(C(F)(F)F)cc(C(F)(F)F)c1)c1cc(C(=O)N[C@@H]2CCCCNC2=O)ccc1-c1ccc(Cl)c(Cl)c1 | 0.8
8 | CN(C)C(=O)c1ccc(-c2ccc(Cl)cc2)c(N(C)C(=O)c2cc(C(F)(F)F)cc(C(F)(F)F)c2)c1 [2-[(3,5-Bis-trifluoromethyl-benzoyl)-methyl-amino]-4'-chloro-biphenyl-4-carboxylic acid dimethylamide] | 4
9 | CN(C(=O)c1cc(C(F)(F)F)cc(C(F)(F)F)c1)c1cc(C(=O)NC2CCCCC2)ccc1-c1ccc(F)cc1 [2-[(3,5-Bis-trifluoromethyl-benzoyl)-methyl-amino]-4'-fluoro-biphenyl-4-carboxylic acid cyclohexylamide] | 34
